Measured values as given in US20260041683A1, “Compounds with Anti-Acinetobacter Baumannii Activity” (University of Kentucky Research Foundation, priority 2022, published 2026).
In brackets after ≈: the same amount, converted by molar mass. Read-outs that look alike come from different tables or passages of the source.

Key:
[1] = system: all 43 strains of A. baumannii (41 CDC strains and 2 ATCC strains); assay: MIC value statistics for all A. baumannii strains; assay type: cell-based, Acinetobacter baumannii; conditions: of 43 A. baumannii strains
Method: All bacterial strains listed above were stored at −80° C. All strains were streaked on Mueller-Hinton (MH) plates and allowed to grow at 37° C. overnight. Enough colonies were scraped from the plate and suspended in MH broth with vortexing to reach an attenuance at 600 nm (OD600) of ˜0.5. The resulting culture was diluted 1:1000 and added to the prepared serially doubly diluted compound solutions in 96-well plates. […]. For each row, one well was reserved for sterile control (which consisted of 200 μL of MH medium) and another well was reserved for growth control (which consisted of 100 μL of MH medium seeded with 100 μL of bacterial culture).
Having established that the observed activity is selective to A. baumannii, all synthesized compounds were tested against a panel of antibiotic resistant A. baumannii from the Antimicrobial Resistant (AR) Isolate Bank from the CDC along with strains I and J (Table Si). […]. Based on this statistical analysis, the best compound is 5e followed closely by 3e.

S. aureus ATCC 25923 = assay: MIC determination; assay type: cell-based; conditions: Staphylococcus aureus, ATCC25923; Table 5; Mueller-Hinton medium; B = S. aureus ATCC 25923; read-out: MIC strain B
K. pneumoniae ATCC 27736 = assay: MIC determination; assay type: cell-based; conditions: Klebsiella pneumoniae, ATCC27736
P. aeruginosa ATCC 27853 = assay: MIC determination; assay type: cell-based; conditions: Pseudomonas aeruginosa, ATCC27853
S. enterica ATCC 14028 = assay: MIC determination; assay type: cell-based; conditions: Salmonella enterica, ATCC14028; Table 5; Mueller-Hinton medium; H = S. enterica ATCC 14028; read-out: MIC strain H
Gram-negative bacteria = assay: MIC determination, panel statement; assay type: cell-based; conditions: moderate activity
B. anthracis Sterne F32 = assay: microbe, parasite or virus in culture; assay type: cell-based; conditions: Bacillus anthracis, STERNEF32, read-out: MIC strain A
E. coli MC1061 = assay: MIC determination; assay type: cell-based; conditions: Escherichia coli; Table 5; Mueller-Hinton medium; D = E. coli MC1061; read-out: MIC strain D
E. cloacae ATCC 13047 = assay: MIC determination; assay type: cell-based; conditions: Enterobacter cloacae, ATCC13047; Table 5; Mueller-Hinton medium; E = E. cloacae ATCC 13047; read-out: MIC strain E
[2] = system: S. epidermidis ATCC 12228; assay: MIC determination; assay type: cell-based; conditions: Staphylococcus epidermidis, ATCC12228; Table 5; Mueller-Hinton medium; C = S. epidermidis ATCC 12228; read-out: MIC strain C
[3] = system: Ab ATCC BAA1605 (strain J, multidrug-resistant); assay: MIC determination; assay type: cell-based; conditions: Acinetobacter baumannii
Method: (§1) All bacterial strains listed above were stored at −80° C. All strains were streaked on Mueller-Hinton (MH) plates and allowed to grow at 37° C. overnight. Enough colonies were scraped from the plate and suspended in MH broth with vortexing to reach an attenuance at 600 nm (OD600) of ˜0.5. The resulting culture was diluted 1:1000 and added to the prepared serially doubly diluted compound solutions in 96-well plates. For M. smegmatis, a 1:100 dilution of the bacteria was done in MH. All MIC values were determined using 96-well plates with low evaporation seals at least in duplicate. For each row, one well was reserved for sterile control (which consisted of 200 μL of MH medium) and another well was reserved for growth control (which consisted of 100 μL of MH medium seeded with 100 μL of bacterial culture).
(§2) Minimum inhibitory concentrations (MIC) of all compounds from the series were measured in liquid cultures of different Ab strains by a double-dilution method in Mueller-Hinton broth. Initially, the activity of all 46 compounds against Ab ATCC 19606 (a control strain) and Ab ATCC BAA1605 (a multidrug-resistant strain) (Table 1; data shown for 27 representative compounds) was measured.

Ab ATCC 19606 (strain I) = assay: MIC determination (double dilution, Mueller-Hinton broth); assay type: cell-based, Acinetobacter baumannii; conditions: Acinetobacter baumannii, ATCC19606
Method: as §1, with “Enough colonies were scraped from the plate and suspended in MH broth with vortexing to reach an attenuance at 600 nm (OD600) of ˜0.5.” left out
as §2

[4] = system: K. pneumoniae ATCC BAA 1705; assay: MIC determination; assay type: cell-based; conditions: Klebsiella pneumoniae, BAA1705; Table 3
E. coli ATCC BAA 2469 = assay: MIC determination; assay type: cell-based; conditions: Escherichia coli, BAA2469; Table 3
[5] = Table 5, Mueller-Hinton medium, F = K. pneumoniae ATCC 27736, read-out: MIC strain F
[6] = Table 5, Mueller-Hinton medium, G = P. aeruginosa ATCC 27853, read-out: MIC strain G
[7] = Table 5, Mueller-Hinton medium, J = A. baumannii BAA1605, read-out: MIC strain J
[8] = Table 5, Mueller-Hinton medium, I = A. baumannii ATCC 19606, read-out: MIC strain I
[9] = Table 1, multidrug-resistant strain, read-out: MIC Ab ATCC BAA 1605
[10] = Table 1, control strain, read-out: MIC Ab ATCC 19606

Compound | number of compound/strain combinations with MIC value 0.25 μg/mL [1] | number of compound/strain combinations with MIC value 0.5 μg/mL [1] | number of compound/strain combinations with MIC value 1 μg/mL [1] | number of compound/strain combinations with MIC value ≤0.125 μg/mL [1] | MIC (S. aureus ATCC 25923) | MIC (K. pneumoniae ATCC 27736; [5]) | MIC (P. aeruginosa ATCC 27853; [6]) | MIC (S. enterica ATCC 14028) | MIC (Gram-negative bacteria) | MIC (B. anthracis Sterne F32) | MIC (E. coli MC1061) | MIC (E. cloacae ATCC 13047) | MIC [2] | MIC [3, 7] | MIC (Ab ATCC 19606 (strain I); [8]) | MIC [3, 9] | MIC (Ab ATCC 19606 (strain I); [10]) | other results
O=C(NNc1ccc(Cl)cc1)c1ccccc1 [Compound 10e] | 23 | 6 | 1 | 13 | 64 µg/mL (≈ 259 µM) | 16 µg/mL (≈ 64.9 µM) | > 64 µg/mL | 64 µg/mL (≈ 259 µM) | 4 to 16 µg/mL (≈ 16.2 to 64.9 µM) | > 64 µg/mL | 16 µg/mL (≈ 64.9 µM) | 16 µg/mL (≈ 64.9 µM) | 64 µg/mL (≈ 259 µM) | 0.5 µg/mL (≈ 2.03 µM) | 0.25 µg/mL (≈ 1.01 µM) |  |  | 
O=C(NNc1ccc(Cl)cc1)c1cccc(F)n1 [Compound 5e] | 21 | 2 |  | 20 | > 64 µg/mL | 16 µg/mL (≈ 60.2 µM) | > 64 µg/mL | 16 µg/mL (≈ 60.2 µM) | 4 to 16 µg/mL (≈ 15.1 to 60.2 µM) | > 64 µg/mL | 16 µg/mL (≈ 60.2 µM) | 16 µg/mL (≈ 60.2 µM) | > 64 µg/mL | ≤ 0.125 µg/mL | ≤ 0.125 µg/mL | 0.125 µg/mL (≈ 0.47 µM) | 0.125 µg/mL (≈ 0.47 µM) | 
O=C(NNc1ccc(Cl)cc1)c1ccc(F)cc1F [Compound 1e] | 17 | 12 | 5 | 8 | > 64 µg/mL | > 64 µg/mL | > 64 µg/mL | > 64 µg/mL | 4 to 16 µg/mL (≈ 14.2 to 56.6 µM) | > 64 µg/mL | 16 µg/mL (≈ 56.6 µM) | 16 µg/mL (≈ 56.6 µM) | > 64 µg/mL | 0.25 µg/mL (≈ 0.884 µM) | 0.25 µg/mL (≈ 0.884 µM) | 0.25 µg/mL (≈ 0.884 µM) | 0.25 µg/mL (≈ 0.884 µM) | number of compound/strain combinations with MIC value 2 μg/mL [1]: 1
CCC(=O)NNc1ccc(Cl)cc1 [Compound 16e] | 17 | 10 | 1 | 15 | > 64 µg/mL | 16 µg/mL (≈ 80.5 µM) | > 64 µg/mL | 64 µg/mL (≈ 322 µM) |  | > 64 µg/mL | 16 µg/mL (≈ 80.5 µM) | 16 µg/mL (≈ 80.5 µM) | > 64 µg/mL | ≤ 0.125 µg/mL | ≤ 0.125 µg/mL | ≤ 0.125 µg/mL | ≤ 0.25 µg/mL | 
O=C(NNc1ccc(Cl)cc1)c1ccco1 [Compound 15e] | 18 | 10 | 2 | 13 | 64 µg/mL (≈ 270 µM) | 16 µg/mL (≈ 67.6 µM) | > 64 µg/mL | 16 µg/mL (≈ 67.6 µM) |  | > 64 µg/mL | 16 µg/mL (≈ 67.6 µM) | 4 µg/mL (≈ 16.9 µM) | 64 µg/mL (≈ 270 µM) | ≤ 0.125 µg/mL | 0.5 µg/mL (≈ 2.11 µM) | ≤ 0.125 µg/mL | 0.5 µg/mL (≈ 2.11 µM) | 
COc1cccc(NNC(=O)c2ccccn2)c1 [Compound 2c] | 5 | 6 | 28 | 1 |  |  |  |  |  |  |  |  |  |  |  | 1 µg/mL (≈ 4.11 µM) | 0.5 µg/mL (≈ 2.06 µM) | number of compound/strain combinations with MIC value 2 μg/mL [1]: 3; MIC (K. pneumoniae ATCC 27736; Table 3, read-out: MIC K. pneumoniae ATCC 27736): > 128 µg/mL; MIC (P. aeruginosa ATCC 27853; Table 3, read-out: MIC P. aeruginosa ATCC 27853): > 128 µg/mL; MIC [4]: > 128 µg/mL; MIC (E. coli ATCC BAA 2469): > 128 µg/mL; MIC ([3]; Table 3, positive control strain, read-out: MIC A. Baumannii ATCC BAA 1605): 1 µg/mL (≈ 4.11 µM)
CCOC(=O)CNNC(=O)c1ccc2ccccc2n1 [Compound 12g] |  |  |  |  | > 64 µg/mL | > 64 µg/mL | > 64 µg/mL | > 64 µg/mL |  | > 64 µg/mL | > 64 µg/mL | > 64 µg/mL | > 64 µg/mL | > 64 µg/mL | > 64 µg/mL |  |  | number of compound/strain combinations with MIC value >64 μg/mL [1]: 43
